Molecular target: T1, PIKFYVE (Homo sapiens, UniProt Q9Y2I7)
T1 construct: purchased Eurofins (KINOMEscan); host or cells: E. coli BL21-derived (T7 phage display) or HEK-293
Assay: KINOMEscan Kinase Assay (Eurofins), PIKFYVE inhibitory activity
Type: binding
Settings: for inhibition at 0.005 µM: @ 5 nM; for IC50: KINOMEscan

T1 sequence (Q9Y2I7 whole entry): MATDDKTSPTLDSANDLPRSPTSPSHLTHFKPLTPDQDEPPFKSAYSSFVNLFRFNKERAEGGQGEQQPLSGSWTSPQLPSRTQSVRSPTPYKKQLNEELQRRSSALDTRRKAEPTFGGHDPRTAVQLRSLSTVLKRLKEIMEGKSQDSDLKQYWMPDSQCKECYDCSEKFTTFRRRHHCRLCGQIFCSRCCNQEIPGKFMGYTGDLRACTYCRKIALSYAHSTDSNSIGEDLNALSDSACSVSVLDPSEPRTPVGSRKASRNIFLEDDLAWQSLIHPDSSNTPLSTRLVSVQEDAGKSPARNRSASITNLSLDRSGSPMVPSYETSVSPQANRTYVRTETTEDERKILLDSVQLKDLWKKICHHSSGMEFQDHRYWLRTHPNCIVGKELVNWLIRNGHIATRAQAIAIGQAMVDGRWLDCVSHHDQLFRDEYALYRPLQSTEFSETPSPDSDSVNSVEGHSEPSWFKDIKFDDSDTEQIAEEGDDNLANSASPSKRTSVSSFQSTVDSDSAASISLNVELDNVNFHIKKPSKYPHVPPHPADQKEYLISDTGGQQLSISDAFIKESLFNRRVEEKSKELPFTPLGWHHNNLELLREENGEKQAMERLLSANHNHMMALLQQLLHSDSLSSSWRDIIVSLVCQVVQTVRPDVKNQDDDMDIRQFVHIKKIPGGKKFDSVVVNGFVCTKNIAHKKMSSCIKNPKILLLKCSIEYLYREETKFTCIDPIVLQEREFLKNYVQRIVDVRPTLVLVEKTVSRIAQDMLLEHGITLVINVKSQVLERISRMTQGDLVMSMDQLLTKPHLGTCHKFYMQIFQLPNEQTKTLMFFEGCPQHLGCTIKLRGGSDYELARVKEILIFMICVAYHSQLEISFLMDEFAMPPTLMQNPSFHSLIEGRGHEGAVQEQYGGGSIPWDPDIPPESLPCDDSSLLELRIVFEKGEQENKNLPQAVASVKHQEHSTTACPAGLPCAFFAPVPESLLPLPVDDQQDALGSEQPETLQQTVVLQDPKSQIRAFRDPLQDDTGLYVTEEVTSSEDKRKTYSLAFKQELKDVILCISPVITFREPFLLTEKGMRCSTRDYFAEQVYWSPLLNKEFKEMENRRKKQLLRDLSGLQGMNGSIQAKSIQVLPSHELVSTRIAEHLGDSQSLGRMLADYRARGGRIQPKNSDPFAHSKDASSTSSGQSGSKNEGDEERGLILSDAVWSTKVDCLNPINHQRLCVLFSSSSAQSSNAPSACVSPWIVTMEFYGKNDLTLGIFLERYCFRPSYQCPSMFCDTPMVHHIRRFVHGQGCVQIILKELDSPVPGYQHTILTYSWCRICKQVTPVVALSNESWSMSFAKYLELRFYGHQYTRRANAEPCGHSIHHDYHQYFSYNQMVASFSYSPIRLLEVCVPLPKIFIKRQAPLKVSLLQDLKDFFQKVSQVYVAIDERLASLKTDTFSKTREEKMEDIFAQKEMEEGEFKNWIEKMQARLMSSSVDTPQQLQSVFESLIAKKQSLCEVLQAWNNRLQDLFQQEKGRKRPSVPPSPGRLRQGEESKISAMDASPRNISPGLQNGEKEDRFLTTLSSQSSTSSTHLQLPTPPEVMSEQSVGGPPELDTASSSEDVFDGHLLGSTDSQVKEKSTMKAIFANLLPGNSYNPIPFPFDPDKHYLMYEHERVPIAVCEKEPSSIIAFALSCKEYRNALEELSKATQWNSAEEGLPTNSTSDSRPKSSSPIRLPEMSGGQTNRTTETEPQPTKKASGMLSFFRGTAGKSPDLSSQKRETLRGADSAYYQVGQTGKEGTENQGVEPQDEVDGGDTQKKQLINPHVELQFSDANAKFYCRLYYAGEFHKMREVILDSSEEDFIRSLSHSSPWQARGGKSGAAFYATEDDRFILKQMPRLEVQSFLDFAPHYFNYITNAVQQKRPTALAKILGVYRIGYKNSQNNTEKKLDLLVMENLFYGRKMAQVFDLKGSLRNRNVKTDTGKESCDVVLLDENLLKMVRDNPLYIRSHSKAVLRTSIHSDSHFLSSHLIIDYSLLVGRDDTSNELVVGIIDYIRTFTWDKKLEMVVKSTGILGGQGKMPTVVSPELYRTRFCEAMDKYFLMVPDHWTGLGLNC

IC50 [nM]	SMILES	further results
	Cc1cc(-c2ccn(-c3cc(N4CCOCC4)c4sc(CN5CCOCC5)cc4n3)n2)ccn1 [Ex. 190, 4-(5-(3-(2-Methylpyridin-4-yl)-1H-pyrazol-1-yl)-2-(morpholinomethyl)thieno[3,2-b]pyridin-7-yl) morpholine]	inhibition at 0.005 µM: 5%
> 100	Cc1cccc(-c2ccn(-c3nc(N4CCOCC4)c4sc(CN5CCC(N6CCOCC6)CC5)cc4n3)n2)c1 [Ex. 33, 4-(1-((4-morpholino-2-(3-(m-tolyl)-1H-pyrazol-1-yl)thieno[3,2-d]pyrimidin-6-yl)methyl)piperidin-4-yl)morpholine]	
1 to 10	Cc1cccc(-c2ccn(-c3nc(N4CCOCC4)c4nc(CN5CCC(C(C)(C)O)CC5)[nH]c4n3)n2)c1 [Ex. 13, 2-(1-((6-morpholino-2-(3-(m-tolyl)-1H-pyrazol-1-yl)-9H-purin-8-yl)methyl)piperidin-4-yl)propan-2-ol]	
< 1	Cc1cccc(-c2ccn(-c3nc(N4CCOCC4)c4nc(-c5cnn(C)c5)sc4n3)n2)c1 [Ex. 49, 4-(2-(1-methyl-1H-pyrazol-4-yl)-5-(3-(m-tolyl)-1H-pyrazol-1-yl)thiazolo[5,4-d]pyrimidin-7-yl)morpholine]	
	CC(=O)c1cccc(-c2ccn(-c3cc(N4CCOCC4)c4sc(CN5CCOCC5)cc4n3)n2)c1 [Ex. 184, 1-(3-(1-(7-Morpholino-2-(morpholinomethyl)thieno[3,2-b]pyridin-5-yl)-1H-pyrazol-3-yl)phenyl)ethan-1-one]	inhibition at 0.005 µM: 5%
< 1	Cc1cccc(-c2ccn(-c3nc(N4CCOCC4)c4sc(CN5CC[C@H](N(C)C)C5)cc4n3)n2)c1 [Ex. 19, (S)—N,N-dimethyl-1-((4-morpholino-2-(3-(m-tolyl)-1H-pyrazol-1-yl)thieno[3,2-d]pyrimidin-6-yl)methyl)pyrrolidin-3-amine]	
1 to 10	COC1(c2sc3c(N4CCOCC4)nc(-n4ccc(-c5cccc(C)c5)n4)nc3c2C)COC1 [Ex. 65, 4-(6-(3-methoxyoxetan-3-yl)-7-methyl-2-(3-(m-tolyl)-1H-pyrazol-1-yl)thieno[3,2-d]pyrimidin-4-yl)morpholine]	
1 to 10	Cc1cccc(-c2ccn(-c3nc(N4CCOCC4)c4sc(C(=O)N5CC[C@@H](N(C)C)C5)c(C)c4n3)n2)c1 [Ex. 60, (R)-(3-(dimethylamino)pyrrolidin-1-yl)(7-methyl-4-morpholino-2-(3-(m-tolyl)-1H-pyrazol-1-yl)thieno[3,2-d]pyrimidin-6-yl)methanone]	
1 to 10	COc1cccc(-c2ccn(-c3nc(N4CCOCC4)c4sc(CN5CCN(S(C)(=O)=O)CC5)cc4n3)n2)c1 [Ex. 3, 4-(2-(3-(3-methoxyphenyl)-1H-pyrazol-1-yl)-6-((4-(methylsulfonyl)piperazin-1-yl)methyl)thieno[3,2-d]pyrimidin-4-yl)morpholine]	
1 to 10	Cc1cccc(-c2ccn(-c3nc(N4CCOCC4)c4sc(C(C)N5CCN(S(C)(=O)=O)CC5)cc4n3)n2)c1 (stereo not drawn) [Ex. 26, 4-(6-(1-(4-(methylsulfonyl)piperazin-1-yl)ethyl)-2-(3-(m-tolyl)-1H-pyrazol-1-yl)thieno[3,2-d]pyrimidin-4-yl)morpholine]	
< 1	Cc1cccc(-c2ccn(-c3cc(N4CCOCC4)c4sc(CN5CCC(N(C)C)C(F)C5)cc4n3)n2)c1 (stereo not drawn) [Ex. 69, 3-fluoro-N,N-dimethyl-1-((7-morpholino-5-(3-(m-tolyl)-1H-pyrazol-1-yl)thieno[3,2-b]pyridin-2-yl)methyl)piperidin-4-amine]	
	Cc1cccc(-c2ccn(-c3nc(N4CCOCC4)c4nc(CN5CCN(C)CC5)[nH]c4n3)n2)c1 [Ex. 35, 4-(8-((4-methylpiperazin-1-yl)methyl)-2-(3-(m-tolyl)-1H-pyrazol-1-yl)-9H-purin-6-yl)morpholine]	inhibition at 0.001 µM (@ 1 nM): 13%
1 to 10	Cc1cccc(-c2ccn(-c3nc(N4CCOCC4)c4nc(CN5CCC(N(C)S(C)(=O)=O)CC5)[nH]c4n3)n2)c1 [Ex. 11, N-methyl-N-(1-((6-morpholino-2-(3-(m-tolyl)-1H-pyrazol-1-yl)-9H-purin-8-yl)methyl)piperidin-4-yl)methanesulfonamide]	
< 1	Cc1cccc(-c2ccn(-c3cc(N4CCOCC4)c4nc(CN5CCN(S(C)(=O)=O)CC5)[nH]c4n3)n2)c1 [Ex. 27, 4-(2-((4-(methylsulfonyl)piperazin-1-yl)methyl)-5-(3-(m-tolyl)-1H-pyrazol-1-yl)-3H-imidazo[4,5-b]pyridin-7-yl)morpholine]	
1 to 10	CS(=O)(=O)N1CCN(Cc2cc3nc(-n4ccc(-c5cccc(Br)c5)n4)nc(N4CCOCC4)c3s2)CC1 [Ex. 1, 4-(2-(3-(3-bromophenyl)-1H-pyrazol-1-yl)-6-((4-(methylsulfonyl)piperazin-1-yl)methyl)thieno[3,2-d]pyrimidin-4-yl)morpholine]	
	Cc1cccc(-c2ccn(-c3nc(N4CCC(=O)C4)c4sc(CN5CCN(S(C)(=O)=O)CC5)cc4n3)n2)c1 [Ex. 129, 1-(6-((4-(methylsulfonyl)piperazin-1-yl)methyl)-2-(3-(m-tolyl)-1H-pyrazol-1-yl)thieno[3,2-d]pyrimidin-4-yl)pyrrolidin-3-one]	inhibition at 0.03 µM (@ 30 nM): 92%
1 to 10	Cc1cccc(-c2ccn(-c3nc(N4CCOCC4)c4nc(CN5CCOCC5)[nH]c4n3)n2)c1 [Ex. 14, 4-((6-morpholino-2-(3-(m-tolyl)-1H-pyrazol-1-yl)-9H-purin-8-yl)methyl) morpholine]	

IC50 [nM]	SMILES	further results
< 1	Cc1cccc(-c2ccn(-c3nc(N4CCOCC4)c4nc(CN5CCC(N6CCC6)C(F)C5)[nH]c4n3)n2)c1 (stereo not drawn) [Ex. 43, 4-(8-((4-(azetidin-1-yl)-3-fluoropiperidin-1-yl)methyl-2-(3-m-tolyl)-1H-pyrazol-1-yl)-9H-purin-6-yl)morpholine]	
1 to 10	Cc1cccc(-c2ccn(-c3nc(N4CCOCC4)c4nc(CN5CCOCC5)sc4n3)n2)c1 [Ex. 30, 4-((7-morpholino-5-(3-(m-tolyl)-1H-pyrazolyl)thiazolo[5,4-d]pyrimidin-2-yl)methyl)morpholine]	
< 1	Cc1cccc(-c2ccn(-c3nc(N4CCOCC4)c4sc(CN5CC(N(C)C)C5)cc4n3)n2)c1 [Ex. 32, N,N-dimethyl-1-((4-morpholino-2-(3-(m-tolyl)-1H-pyrazol-1-yl)thieno[3,2-d]pyrimidin-6-yl)methyl)azetidin-3-amine]	
1 to 10	COC(C)(C)c1sc2c(N3CCOCC3)nc(-n3ccc(-c4cccc(C)c4)n3)nc2c1C [Ex. 64, 4-(6-(2-methoxypropan-2-yl)-7-methyl-2-(3-(m-tolyl)-1H-pyrazol-1-yl)thieno[3,2-d]pyrimidin-4-yl)morpholine]	
< 1	Cc1cccc(-c2ccn(-c3nc(N4CCOCC4)c4sc(CN5CC6C(C5)C6N(C)C)cc4n3)n2)c1 (stereo not drawn) [Ex. 20, N,N-dimethyl-3-((4-morpholino-2-(3-(m-tolyl)-1H-pyrazol-1-yl)thieno[3,2-d]pyrimidin-6-yl)methyl)-3-azabicyclo[3.1.0]hexan-6-amine]	
< 1	Cc1cccc(-c2ccn(-c3nc(N4CCOCC4)c4sc(CN5CCC(N(C)C)C(F)C5)c(C)c4n3)n2)c1 (stereo not drawn) [Ex. 55, 3-fluoro-N,N-dimethyl-1-((7-methyl-4-morpholino-2-(3-(m-tolyl)-1H-pyrazol-1-yl)thieno[3,2-d]pyrimidin-6-yl)methyl)piperidin-4-amine]	
	Cc1cccc(-c2ccn(-c3cc(N4CCOCC4)c4nc(CN5CCC(N6CCOCC6)CC5)[nH]c4n3)n2)c1 [Ex. 42, 4-(1-((7-morpholino-5-(3-(m-tolyl)-1H-pyrazol-1-yl)-3H-imidazo[4,5-b]pyridin-2-yl)methyl)piperidin-4-yl)morpholine]	inhibition at 1 µM (@ 1000 nM): 98%
< 1	Cc1cccc(-c2ccn(-c3nc(N4CCOCC4)c4nc(CN5CCC(N(C)C)CC5)[nH]c4n3)n2)c1 [Ex. 15, N,N-dimethyl-1-((6-morpholino-2-(3-(m-tolyl)-1H-pyrazol-1-yl)-9H-purin-8-yl)methyl)piperidin-4-amine]	
10 to 100	Cc1cccc(-c2ccn(-c3nc(N4CCCOCC4)c4sc(CN5CCN(S(C)(=O)=O)CC5)cc4n3)n2)c1 [Ex. 71, 4-(6-((4-(methylsulfonyl)piperazin-1-yl)methyl)-2-(3-(m-tolyl)-1H-pyrazol-1-yl)thieno[3,2-d]pyrimidin-4-yl)-1,4-oxazepane]	
1 to 10	Cc1cccc(-c2ccn(-c3nc(N4CCOCC4)c4sc(CN5CCC6(OCCO6)C(F)C5)cc4n3)n2)c1 (stereo not drawn) [Ex. 50, 6-fluoro-8-((4-morpholino-2-(3-(m-tolyl)-1H-pyrazol-1-yl)thieno[3,2-d]pyrimidin-6-yl)methyl)-1,4-dioxa-8-azaspiro[4.5]decane]	
	CC(O)c1cccc(-c2ccn(-c3cc(N4CCOCC4)c4sc(CN5CCOCC5)cc4n3)n2)c1 (stereo not drawn) [Ex. 193, 1-(3-(1-(7-Morpholino-2-(morpholinomethyl)thieno[3,2-b]pyridin-5-yl)-1H-pyrazol-3-yl)phenyl)ethan-1-ol]	inhibition at 0.005 µM: 22%
< 1	Cc1cccc(-c2ccn(-c3nc(N4CCOCC4)c4sc(-c5cnn(C)c5)cc4n3)n2)c1 [Ex. 37, 4-(6-(1-methyl-1H-pyrazol-4-yl)-2-(3-(m-tolyl)-1H-pyrazol-1-yl)thieno[3,2-d]pyrimidin-4-yl)morpholine]	
< 1	Cc1cccc(-c2ccn(-c3nc(N4CCOCC4)c4sc(C(C)N5CCC(N(C)C)CC5)cc4n3)n2)c1 (stereo not drawn) [Ex. 17, N,N-dimethyl-1-(1-(4-morpholino-2-(3-(m-tolyl)-1H-pyrazol-1-yl)thieno[3,2-d]pyrimidin-6-yl)ethyl)piperidin-4-amine]	
< 1	Cc1cccc(-c2ccn(-c3cc(N4CCOCC4)c4nc(CN5CC[C@H](N(C)C)C5)[nH]c4n3)n2)c1 [Ex. 46, (S)—N,N-dimethyl-1-((7-morpholino-5-(3-(m-tolyl)-1H-pyrazol-1-yl)-3H-imidazo[4,5-b]pyridin-2-yl)methyl)pyrrolidin-3-amine]	
< 1	Cc1cccc(-c2ccn(-c3nc(N4CCOCC4)c4nc(-c5cnn(C)c5)[nH]c4n3)n2)c1 [Ex. 44, 4-(8-(1-methyl-1H-pyrazol-4-yl)-2-(3-(m-tolyl)-1H-pyrazol-1-yl)-9H-purin-6-yl)morpholine]	
	Cc1cccc(-c2ccn(-c3cc(N4CCOCC4)c4sc(CN5CCOCC5)c(C)c4n3)n2)c1 [Ex. 167, 4-(3-Methyl-2-(morpholinomethyl)-5-(3-(m-tolyl)-1H-pyrazol-1-yl)thieno[3,2-b]pyridin-7-yl)morpholine]	inhibition at 0.003 µM (@ 3 nM): 0%
